Data published in US20160250185A1, “PHARMACEUTICAL COMPOSITION FOR C[…] MASS GAIN […]-PHENOTROPIL” (LATVIAN INSTITUTE OF ORGANIC SYNTHESIS, priority 2013, published 2016).
Entries after “also recorded” stand apart in the source; their conditions may differ. Marks after values point to notes of the source that are not given here.

Columns and labels:
[1] = Open field test, locomotor activity; format: in vivo; settings: for locomotor effect compared with R-phenotropil: respective doses, S-enantiomer at 50 mg/kg; for time for which increase in locomotor activity was retained: single i.p., 50 mg/kg stated for R-phenotropil
Protocol: Locomotor activity was tested in an open field test 30, 60, 120, 180 and 240 min after a single i.p. injection of the racemic phenotropil and R- and S-enantiomers (FIG. 1A,B,C,D). […] R-phenotropil in 5, 10 and 50 mg/kg doses induced a statistically significant increase in locomotor activity in comparison with the control animals [F(3.31)=10.37, p<0.0001] (FIG. 1A,C). Furthermore, R-phenotropil in the dose of 50 mg/kg retained a statistically significant increase in locomotor activity for up to 240 min [F(9.80)=24.03, p<0.0001] (FIG. 1B,D).

[2] = Forced swimming test (duration of immobility), antidepressive effect; format: in vivo; settings: for doses significantly reducing duration of immobility vs control group: 30 min after i.p. injection, doses tested 10, 50 and 100 mg/kg
Protocol: The antidepressive effect of the racemic, R- and S-phenotropil was tested in a forced swimming test (by determining the duration of immobility) 30 min after the i.p. injection of the compounds in doses 10, 50 and 100 mg/kg (FIG. 2).

mice = assay: Passive avoidance test, latent period of the remembering process; format: in vivo; settings: for effect on latent period / passive avoidance: dose not given; for increase of latent period in comparison with control group: mice
Protocol: The influence of racemic, R- and S-phenotropil on memory processes was determined by means of a passive avoidance test (PCR), by registering the latent period of the remembering process.

[3] = Cylinder test, muscle strength and coordination; format: in vivo; settings: for effect on muscle strength and coordination: cylinder, traction and rotating rod tests, up to 500 mg/kg
Protocol: (§1) None of the compounds affected rectal temperature at the dose of 500 mg/kg (Table 1).
(§2) The compounds were administered in i.p. doses of 50, 100, 250 and 500 mg/kg. The effect of the substances in different tests was evaluated 30, 60, 120 and 180 min after the administration of the compounds. ED50 value was calculated by, performing probit analysis.

[4] = Traction test, muscle strength and coordination; format: in vivo; settings: i.p. 50, 100, 250 and 500 mg/kg, 30-180 min, probit analysis
Protocol: as §1, §2

[5] = Rotating rod test, muscle strength and coordination; format: in vivo; settings: i.p. 50, 100, 250 and 500 mg/kg, 30-180 min, probit analysis
Protocol: as §1, §2

Rectal temperature = format: in vivo; settings: i.p. 50, 100, 250 and 500 mg/kg, 30-180 min, probit analysis
Protocol: as §1, §2

[6] = nootropic activity, literature (Malykh, Sadaie 2010); cited from earlier work
Zucker fa/fa rats = assay: Body mass gain in Zucker fa/fa rats, 12 weeks oral administration; format: in vivo
Protocol: The influence of an S-phenotropil containing composition on the body mass. Zucker fa/fa (HsdOla:Zucker-Lepfre; Harlan Laboratories) and Zucker lean line rats (HsdOla:Zucker-Lean; Harlan Laboratories) with the body mass of 100-170 g were used during the experiment. At the beginning of the experiment the animals were 6 weeks old. Standard conditions for keeping the experimental animals were ensured (air temperature 21° C.-23° C., relative air humidity 65%±10%, 12 hour light/darkness cycle). Standardised feed (R70) by the company LABFOR (Lactamin AB, Sweden) was used to feed the animals, drinking water was accessible without limitations.
S-phenotropil containing pharmaceutical composition in water or water was orally administered to the mature male rats included into the experimental group once daily in the morning: To the Zucker lean group (n=10), water p.o., to the Zucker fa/fa control group (n=10), water p.o. or to the Zucker fa/fa group S-phenotropil containing composition 50 mg/kg (n=5), p.o. The resulting values were expressed as mean values±standard error of the mean (S.E.M.) T-test was used to check the validity of the results. The results were considered valid, if the p value was less than 0.05. […] Since the increase in mass for ZuckerLean control rats is primarily connected with normal increase in muscle mass, as the animals grow, the effect of S-phenotropil in terms of the increase of ZuckerFF fat mass is 39% (FIG. 6).

[7] = i.p. 50, 100, 250 and 500 mg/kg, 30-180 min, probit analysis
[8] = Zucker fa/fa rats, 50 mg/kg p.o. once daily, mean ± S.E.M.

Structure (SMILES)	locomotor effect compared with R-phenotropil [1]	time for which increase in locomotor activity was retained [1]	doses significantly reducing duration of immobility vs control group [2] [mg/kg]	effect on latent period in comparison with control group (mice; 1 mg/kg)	effect on muscle strength and coordination [3]	ED50 Cylinder [3, 7] [mg/kg]	ED50 Traction [4] [mg/kg]	ED50 Rotating rod [5] [mg/kg]	ED50 Rectal temperature (Rectal temperature) [mg/kg]	effect on latent period / passive avoidance (mice)	also measured
NC(=O)CN1CC(c2ccccc2)CC1=O (racemic) [Phenotropil racemate]	less active than R-phenotropil	up to 180 min	100	significantly increased the latent period	did not affect muscle strength and coordination	>500	>500	>500	>500		activity relative to piracetam [6]: 30-60 times
NC(=O)CN1C[C@@H](c2ccccc2)CC1=O [R-phenotropil]		up to 240 min		significantly increased the latent period		258 ± 25	250 ± 40	320 ± 60	>500	considerably affects memory	reduction of duration of immobility in comparison with control group ([2]; 100 mg/kg i.p., 30 min): 8 times; antidepressive effect compared with the other tested compounds / control ([2]; i.p., 30 min after injection): significantly higher in comparison with racemic and S-phenotropil; increase of latent period in comparison with control group (mice; 1 mg/kg): 195%; increase of latent period in comparison with control group (mice; 10 mg/kg): 185%
NC(=O)CN1C[C@H](c2ccccc2)CC1=O [S-phenotropil, (S)-2-(2-oxo-4-phenylpyrrolidin-1-yl)acetamide]	statistically significantly weaker than the effect of R-enantiomer		100		did not affect muscle strength and coordination					does not have any effect in a passive avoidance test; also recorded: did not affect the latent period	dose for statistically significant effect on locomotor activity relative to R-phenotropil [1]: 10 times; doses inducing statistically significant increase in locomotor activity vs control animals ([1]; single i.p. injection): 50 mg/kg; ED50 ([3]; in vivo, intraperitoneal, i.p. 50, 100, 250 and 500 mg/kg, 30-180 min, probit analysis): > 500 mg/kg; ED50 ([4]; in vivo, intraperitoneal): > 500 mg/kg; ED50 ([5]; in vivo, intraperitoneal): > 500 mg/kg; ED50 (Rectal temperature; in vivo, intraperitoneal): > 500 mg/kg; effect on weight increase (Zucker fa/fa rats; Zucker FF rats, 12 weeks, 50 mg/kg p.o.): statistically significantly reduced the weight increase; Increase in fat mass in Week 12 (Zucker fa/fa rats; [8]): 106 ± 7 g; Weight increase in Week 12 (Zucker fa/fa rats; [8]): 2645 ± 30*^, # AUC units; reduction of total weight gain (Zucker fa/fa rats; Zucker fa/fa rats, 50 mg/kg p.o., 12 weeks): 22%; effect in terms of the increase of ZuckerFF fat mass (Zucker fa/fa rats; Zucker fa/fa rats, 50 mg/kg p.o., 12 weeks, relative to Zucker lean growth): 39%
